This is an account of results in patent US9708306B2, “Benzimidazole derivatives and preparation process and pharmaceutical uses thereof” (WUHAN LL SCIENCE AND TECHNOLOGY DEVELOPMENT CO., LTD, priority 2015, dated 2017).

Several values for one entry are separate records, joined by “and”; a condition that tells them apart may be missing. Equal values may be shown once. Read-outs that look alike come from different tables or passages of the source.

Experiment [1] has as its system renovascular hypertensive rats. Kind of experiment: Effect on reducing blood pressure of renovascular hypertensive rats by single oral administration. The format is in vivo, Wistar rats. The conditions noted are these: for change in vivo at 0.5 mg/kg / inhibition in vivo at 0.5 mg/kg / change in vivo at 1 mg/kg / inhibition in vivo at 1 mg/kg / change in vivo at 2 mg/kg / inhibition in vivo at 2 mg/kg: Rattus norvegicus, single oral administration; for change in vivo at 0.5 mg/kg / change in vivo at 1 mg/kg / change in vivo at 2 mg/kg: RHR, read-out: Variations on heart rate; for inhibition in vivo at 0.5 mg/kg / inhibition in vivo at 1 mg/kg / inhibition in vivo at 2 mg/kg: two-kidney one-clip RHR, measured 1-10 h, read-out: Maximum blood pressure reduction.

For experiment [2], the system named is spontaneously hypertensive rats (SHR). In words: Effect on reducing blood pressure of spontaneously hypertensive rats (SHR) by multiple oral administrations. It counts as in vivo. As to conditions: for inhibition in vivo at 0.5 mg/kg / inhibition in vivo at 1 mg/kg / inhibition in vivo at 2 mg/kg: Rattus norvegicus.
Experiment [3] concerns normal rats. Kind of experiment: Effect on blood pressure of normal rats by single oral administration. The conditions noted are these: for inhibition in vivo at 0.5 mg/kg / inhibition in vivo at 1 mg/kg / inhibition in vivo at 2 mg/kg / change in vivo at 0.5 mg/kg / change in vivo at 1 mg/kg / change in vivo at 2 mg/kg: Rattus norvegicus, po, single, normal rats; for inhibition in vivo at 0.5 mg/kg / inhibition in vivo at 1 mg/kg / inhibition in vivo at 2 mg/kg: 8 h, read-out: blood pressure reduction at 8 h after the administration; for inhibition in vivo at 0.5 mg/kg / change in vivo at 0.5 mg/kg: 0.5 mg/kg p.o.; for inhibition in vivo at 1 mg/kg / change in vivo at 1 mg/kg: 1.0 mg/kg p.o.; for inhibition in vivo at 2 mg/kg / change in vivo at 2 mg/kg: 2.0 mg/kg p.o.; for change in vivo at 0.5 mg/kg / change in vivo at 1 mg/kg / change in vivo at 2 mg/kg: read-out: variations on heart rate. The format is in vivo, Wistar rats.

[4] abbreviates: 0.5 mg/kg oral once per day, SHR, 1 hour after the administration, read-out: Maximum blood pressure reduction, 1st-day administration.
[5] abbreviates: 0.5 mg/kg oral once per day, SHR, 1 hour after the administration, read-out: Maximum blood pressure reduction, 7th-day administration.
Setting [6] is: 0.5 mg/kg oral once per day, SHR, 1 hour after the administration, read-out: Maximum blood pressure reduction, 14th-day administration.
The mark [7] stands for this setting: 1.0 mg/kg oral once per day, SHR, 1 hour after the administration, read-out: Maximum blood pressure reduction, 1st-day administration.
Setting [8] is: 1.0 mg/kg oral once per day, SHR, 1 hour after the administration, read-out: Maximum blood pressure reduction, 7th-day administration.
Setting [9] is: 1.0 mg/kg oral once per day, SHR, 1 hour after the administration, read-out: Maximum blood pressure reduction, 14th-day administration.
The mark [10] stands for this setting: 2.0 mg/kg oral once per day, SHR, 1 hour after the administration, read-out: Maximum blood pressure reduction, 1st-day administration.
The mark [11] stands for this setting: 2.0 mg/kg oral once per day, SHR, 1 hour after the administration, read-out: Maximum blood pressure reduction, 7th-day administration.
[12] abbreviates: 2.0 mg/kg oral once per day, SHR, 1 hour after the administration, read-out: Maximum blood pressure reduction, 14th-day administration.
The mark [13] stands for this setting: renal artery-ligated rat, result in words.

Take `CCOc1nc2cccc(C(=O)OCc3oc(=S)oc3C)c2n1Cc1ccc(-c2ccccc2-c2noc(=O)[nH]2)cc1` [QR01013]: the change in vivo at 0.5 mg/kg in experiment [1] is -6 ± 4%; in experiment [3], -3 ± 4%. Moreover, the inhibition in vivo at 0.5 mg/kg in experiment [1] is 16 ± 3%; in experiment [2] (setting [4]) it was 14 ± 5.9%; in experiment [2] (setting [5]), 15 ± 7.1%; in experiment [2] (setting [6]), 17 ± 5.8%; in experiment [3] it was 4.2 ± 2.7%. Also, the change in vivo at 1 mg/kg is -8 ± 3% in experiment [1] and 5% in experiment [3]. Besides, the inhibition in vivo at 1 mg/kg in experiment [1] is 25 ± 4.5%; in experiment [2] (setting [7]) it was 24 ± 5.8%; in experiment [2] (setting [8]), 28 ± 6%; in experiment [2] (setting [9]), 27 ± 6.4%; in experiment [3] it was 6.2 ± 2.3%. Besides, the change in vivo at 2 mg/kg in experiment [1] is -10 ± 5%; in experiment [3] it was -5 ± 4%. In addition, the inhibition in vivo at 2 mg/kg in experiment [1] turned out to be 34 ± 7.1%; in experiment [2] (setting [10]), 34 ± 5.9%; in experiment [2] (setting [11]), 38 ± 5.7%; in experiment [2] (setting [12]), 39 ± 7.1%; in experiment [3] it was 3.4 ± 4.2%.
As to `CCOc1nc2cccc(C(=O)OCc3no[n+]([O-])c3C)c2n1Cc1ccc(-c2ccccc2-c2noc(=O)[nH]2)cc1` [QR01023], the values for the change in vivo at 0.5 mg/kg in experiment [1] and in experiment [3] were -8 ± 5% and -3 ± 2%, respectively. In addition, the inhibition in vivo at 0.5 mg/kg in experiment [1] stood at 18 ± 2.3%; in experiment [2] (setting [4]) it was 25 ± 8.2%; in experiment [2] (setting [5]), 24 ± 7.1%; in experiment [2] (setting [6]) it was 25 ± 6.8%; in experiment [2] (0.5 mg/kg oral, SHR, read-out: Heart Rate (effect on reducing heart rate)) it was 20 ± 3%; in experiment [3] it was 5.3 ± 1.4%. The change in vivo at 1 mg/kg in experiment [1] was -16 ± 7%; in experiment [3] it was 6%. Moreover, the inhibition in vivo at 1 mg/kg was found to be 32 ± 8.1% in experiment [1]; 39 ± 6% in experiment [2] (setting [7]); 38 ± 7% in experiment [2] (setting [8]); 42 ± 5.3% in experiment [2] (setting [9]); 14 ± 4% in experiment [2] (1.0 mg/kg oral, SHR, read-out: Heart Rate (effect on reducing heart rate)); 3.6 ± 6.1% in experiment [3]. The change in vivo at 2 mg/kg in experiment [1] was -23 ± 6%; in experiment [3], -3 ± 5%. For the same compound, the inhibition in vivo at 2 mg/kg in experiment [1] was determined as 42 ± 4.6%; in experiment [2] (setting [10]), 45 ± 7.3%; in experiment [2] (setting [11]) it was 48 ± 9.5%; in experiment [2] (setting [12]), 40 ± 8.2%; in experiment [2] (2.0 mg/kg oral, SHR, read-out: Heart Rate (effect on reducing heart rate)), 23 ± 5%; in experiment [3], 4.3 ± 2.1%. In addition, the “blood pressure reduction at 24 hours after the administration” value in experiment [1] (renal artery-ligated rat, 24 hours after the administration, dose not stated) amounted to 18%. Further, the “blood pressure reduction effect compared with Azilsartan medoxomil” value in experiment [1] (setting [13]) was “obviously superior to that of the Azilsartan medoxomil positive drug”; in experiment [2] (SHR, result in words), “obviously superior to that of the Azilsartan medoxomil positive drug”. The “lasting time of the blood pressure reduction effect compared with Azilsartan medoxomil” value in experiment [1] (setting [13]) is given as “close to that of Azilsartan medoxomil”. Further, the “reduction effects on the heart rate of SHR rats” value in experiment [2] (during the whole administration, result in words) is “significant reduction effects on the heart rate”.
As for `CCOc1nc2cccc(C(=O)OC(OC(=O)OCc3nc(C)c(C)nc3C)C(C)C)c2n1Cc1ccc(-c2ccccc2-c2noc(=O)[nH]2)cc1` (stereo not shown) [QR01027], in experiment [1], the change in vivo at 0.5 mg/kg was -2 ± 3%, the inhibition in vivo at 0.5 mg/kg stood at 14 ± 2%, the change in vivo at 1 mg/kg is -5 ± 3% and the inhibition in vivo at 1 mg/kg came out at 18 ± 2.9%. Further, in experiment [1], the change in vivo at 2 mg/kg was -6 ± 4% and the inhibition in vivo at 2 mg/kg worked out at 23 ± 4.6%. Besides, in experiment [3], the inhibition in vivo at 0.5 mg/kg was 5.2 ± 3%, the inhibition in vivo at 1 mg/kg worked out at 4.8 ± 4.2%, the inhibition in vivo at 2 mg/kg was found to be 2.8 ± 3.9% and the change in vivo at 0.5 mg/kg is -3 ± 4%. Besides, in experiment [3], the change in vivo at 1 mg/kg came to 5% and the change in vivo at 2 mg/kg is -3 ± 4%.
In the case of `CCOc1nc2cccc(C(=O)OCCCCO[N+](=O)[O-])c2n1Cc1ccc(-c2ccccc2-c2noc(=O)[nH]2)cc1` [QR01008], in experiment [1], the change in vivo at 0.5 mg/kg is -8 ± 5%, the inhibition in vivo at 0.5 mg/kg is 17 ± 3.1%, the change in vivo at 1 mg/kg is -15 ± 3% and the inhibition in vivo at 1 mg/kg came out at 28 ± 3.4%. For the same compound, in experiment [1], the change in vivo at 2 mg/kg is -18 ± 5% and the inhibition in vivo at 2 mg/kg was 35 ± 3.4%. The “blood pressure reduction effect compared with Azilsartan medoxomil” value in experiment [1] (setting [13]) is listed as “close to that of Azilsartan medoxomil”. Further, in experiment [3], the inhibition in vivo at 0.5 mg/kg was determined as 4.5 ± 2.7%, the inhibition in vivo at 1 mg/kg worked out at 4.6 ± 2.5%, the inhibition in vivo at 2 mg/kg worked out at 2.1 ± 2.4% and the change in vivo at 0.5 mg/kg was -6 ± 2%. Also, in experiment [3], the change in vivo at 1 mg/kg came to 4% and the change in vivo at 2 mg/kg was -2 ± 3%.
For `CCOc1nc2cccc(C(=O)OC3CCc4c3no[n+]4[O-])c2n1Cc1ccc(-c2ccccc2-c2noc(=O)[nH]2)cc1` (stereo not shown) [QR01035], in experiment [1], the change in vivo at 0.5 mg/kg is -14 ± 6%, the inhibition in vivo at 0.5 mg/kg is 20 ± 3.1%, the change in vivo at 1 mg/kg was -23 ± 6% and the inhibition in vivo at 1 mg/kg was 28 ± 4.5%. In addition, in experiment [1], the change in vivo at 2 mg/kg was -26 ± 5% and the inhibition in vivo at 2 mg/kg came out at 36 ± 4.6%. Further, in experiment [1] (setting [13]), the “blood pressure reduction effect compared with Azilsartan medoxomil” value is on record as “close to that of Azilsartan medoxomil”. In experiment [3], the inhibition in vivo at 0.5 mg/kg amounted to 6.4 ± 2.1%, the inhibition in vivo at 1 mg/kg stood at 3.4 ± 2.5%, the inhibition in vivo at 2 mg/kg was 6.1 ± 3.8% and the change in vivo at 0.5 mg/kg was -4 ± 3%. In addition, in experiment [3], the change in vivo at 1 mg/kg was -3 ± 3% and the change in vivo at 2 mg/kg turned out to be 6%.
Regarding `CCOc1nc2cccc(C(=O)OC(OC(=O)OCc3nc(C)c(C)nc3C)C(C)(C)C)c2n1Cc1ccc(-c2ccccc2-c2noc(=O)[nH]2)cc1` (stereo not shown) [QR01028], in experiment [1], the change in vivo at 0.5 mg/kg is -6 ± 2%, the inhibition in vivo at 0.5 mg/kg came to 15 ± 0.9%, the change in vivo at 1 mg/kg was -6 ± 4% and the inhibition in vivo at 1 mg/kg turned out to be 18 ± 4.2%. In experiment [1], the change in vivo at 2 mg/kg was -12 ± 5% and the inhibition in vivo at 2 mg/kg was found to be 25 ± 3.6%. Also, in experiment [3], the inhibition in vivo at 0.5 mg/kg came to 1.7 ± 5.3%, the inhibition in vivo at 1 mg/kg turned out to be 3.9 ± 5.2%, the inhibition in vivo at 2 mg/kg was found to be 2.5 ± 4.6% and the change in vivo at 0.5 mg/kg was -4 ± 3%. For the same compound, in experiment [3], the change in vivo at 1 mg/kg is -3 ± 4% and the change in vivo at 2 mg/kg was -2 ± 3%.
On to “1-(6-methypyridazine-2-methoxy-carbonyloxy)ethyl-2-ethoxy-1-{[2′-(5-oxo-4,5-dihydro-1,2,4-oxadiazole)-3-yl)biphenyl-4-yl]methyl}-1H-benzimidazole-7-carboxylate [QR01029]”, for which, in experiment [1] (rat, in vivo), the “Maximum blood pressure reduction” value was 12 ± 2.1% and 15 ± 4.3% and 24 ± 5.2%; the “Variations on heart rate” value was −4 ± 3% and −5 ± 2% and −8 ± 2%. Also, in experiment [3] (rat, in vivo), the “blood pressure reduction at 8 h after the administration” value was 4.2 ± 3.2% and 5.8 ± 2.2% and 3.4 ± 4.8%.
Take `CCOc1nc2cccc(C(=O)OCc3nc(C)c(C)nc3C)c2n1Cc1ccc(-c2ccccc2-c2noc(=O)[nH]2)cc1` [QR01006]: in experiment [1], the change in vivo at 0.5 mg/kg is -4 ± 2%, the inhibition in vivo at 0.5 mg/kg was determined as 14 ± 3.4%, the change in vivo at 1 mg/kg was -5 ± 3% and the inhibition in vivo at 1 mg/kg is 18 ± 3.6%. Further, in experiment [1], the change in vivo at 2 mg/kg is -5 ± 3% and the inhibition in vivo at 2 mg/kg amounted to 24 ± 4.1%. Also, in experiment [3], the inhibition in vivo at 0.5 mg/kg was determined as 6.3 ± 2.8%, the inhibition in vivo at 1 mg/kg came out at 7.2 ± 1.9%, the inhibition in vivo at 2 mg/kg was 4.2 ± 2.1% and the change in vivo at 0.5 mg/kg is -3 ± 4%. Besides, in experiment [3], the change in vivo at 1 mg/kg was 2% and the change in vivo at 2 mg/kg is -5 ± 6%.
